From patent US20230340012A1, “NATURAL AND SYNTHETIC COMPOUNDS FOR TREATING CANCER AND OTHER DISEASES” (PACIFIC ARROW LIMITED, priority 2009, published 2023)

System: cancer cells
Assay: MTT cytotoxic assay of esterification products (Cytotoxicity activity)
Type: cell-based, human
Method in brief: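 Cytotoxicity was read by MTT (Carmichael method, modified), with cells seeded 24 h ahead of treatment. Sixteen human cancer lines spanning bone, lung, bladder, ovary, colon, pancreas, prostate, skin, mouth, kidney, breast, liver, brain, leukemia and cervix were used. Test samples were acyl chloride esterification products of triterpenes, as mixtures or HPLC-purified compounds.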

[1] = MTT cytotoxic assay, isolated esterification products of E4A
[2] = esterification products isolated with HPLC, graded strong / moderate / weak
[3] = E4A esterified with Crotonoyl chloride (Cro = Crotonoyl), compounds isolated with HPLC
[4] = E4A esterified with Cinnamoyl chloride (Cin = Cinnamoyl), compounds isolated with HPLC
[5] = E4A esterified with Acetyl chloride (Acy = Acetyl), compounds isolated with HPLC

| Compound | Cytotoxicity activity [1] | Cytotoxicity activity [2] | further results |
| --- | --- | --- | --- |
| CC(C)=CC(=O)OCC1(C)C(O)CCC2(C)C1CCC1(C)C2CC=C2C3CC(C)(C)C(O)C(O)C3(COC(=O)C=C(C)C)C(O)CC21C (centres unmarked) [Compound B3] | strong | – | – |
| CC=CC(=O)OC1C(O)C(C)(C)CC2C3=CCC4C5(C)CCC(O)C(C)(COC(=O)C(C)=CC)C5CCC4(C)C3(C)CC(O)C21COC(=O)C(C)=CC (centres unmarked) [Tig—R—Cro—3] | – | moderate | – |
| C=CCCC(=O)OCC1(C)C(O)CCC2(C)C1CCC1(C)C2CC=C2C3CC(C)(C)C(O)C(O)C3(COC(=O)CCC=C)C(OC(=O)CCC=C)CC21C (centres unmarked) [Compound C7] | moderate | – | – |
| CC=CC(=O)OCC1(C)C(OC(=O)C=CC)CCC2(C)C1CCC1(C)C2CC=C2C3CC(C)(C)C(O)C(OC(=O)C=CC)C3(COC(=O)C=CC)C(OC(=O)C=CC)CC21C (centres unmarked) [Compound I18] | – | – | Cytotoxicity activity [3]: weak |
| CCC(CC)C(=O)OCC1(C)C(OC(=O)C(CC)CC)CCC2(C)C1CCC1(C)C2CC=C2C3CC(C)(C)C(O)C(O)C3(COC(=O)C(CC)CC)C(OC(=O)C(CC)CC)CC21C (centres unmarked) [Compound E10] | weak | – | – |
| CC=CC(=O)OCC12C(O)CC3(C)C(=CCC4C5(C)CCC(OC(=O)C=CC)C(C)(COC(=O)C(C)=CC)C5CCC43C)C1CC(C)(C)C(O)C2O (centres unmarked) [Tig—Cro—4] | – | moderate | – |
| CC1(C)CC2C3=CCC4C5(C)CCC(O)C(C)(COC(=O)C=Cc6ccccc6)C5CCC4(C)C3(C)CC(O)C2(CO)C(O)C1O (centres unmarked) [Compound J1] | – | – | Cytotoxicity activity [4]: moderate |
| CC=CC(=O)OCC12C(O)CC3(C)C(=CCC4C5(C)CCC(O)C(C)(CO)C5CCC43C)C1CC(C)(C)C(OC(=O)C=CC)C2OC(=O)C=CC (centres unmarked) [Compound I20] | – | – | Cytotoxicity activity [3]: moderate |
| CC1(C)CC2C3=CCC4C5(C)CCC(O)C(C)(CO)C5CCC4(C)C3(C)CC(O)C2(COC(=O)C=Cc2ccccc2)C(O)C1O (centres unmarked) [Compound J2] | – | – | Cytotoxicity activity [4]: moderate |
| CC=CC(=O)OC1C(OC(=O)C=CC)C2(COC(=O)C(C)=CC)C(O)CC3(C)C(=CCC4C5(C)CCC(O)C(C)(COC(=O)C(C)=CC)C5CCC43C)C2CC1(C)C (centres unmarked) [Tig—R—Cro—1] | – | weak | – |
| CC=C(C)C(=O)OCC1(C)C(O)CCC2(C)C1CCC1(C)C2CC=C2C3CC(C)(C)C(OC(=O)C=C(C)C)C(O)C3(COC(=O)C(C)=CC)C(O)CC21C (centres unmarked) [Tig—R—Sen—2] | – | moderate | – |
| CC=C(C)C(=O)OCC1(C)C(O)CCC2(C)C1CCC1(C)C2CC=C2C3CC(C)(C)C(OC(=O)CCCCC)C(OC(=O)CCCCC)C3(COC(=O)C(C)=CC)C(O)CC21C (centres unmarked) [Tig—R—Hex—1] | – | weak | – |
| CC=C(C)C(=O)OCC1(C)C(O)CCC2(C)C1CCC1(C)C2CC=C2C3CC(C)(C)C(O)C(O)C3(COC(=O)CCCCC)C(O)CC21C (centres unmarked) [Tig—Hex—1] | – | strong | – |
| CC1(C)CC2C3=CCC4C5(C)CCC(O)C(C)(CO)C5CCC4(C)C3(C)CC(OC(=O)C=Cc3ccccc3)C2(COC(=O)C=Cc2ccccc2)C(O)C1O (centres unmarked) [Compound J28] | – | – | Cytotoxicity activity [4]: moderate |
| C=CCCC(=O)OCC1(C)C(O)CCC2(C)C1CCC1(C)C2CC=C2C3CC(C)(C)C(O)C(O)C3(CO)C(O)CC21C (centres unmarked) [Compound C1] | moderate | – | – |
| CC(C)=CC(=O)OCC1(C)C(O)CCC2(C)C1CCC1(C)C2CC=C2C3CC(C)(C)C(O)C(O)C3(CO)C(O)CC21C (centres unmarked) [Compound B1] | moderate | – | – |
| CC=C(C)C(=O)OCC1(C)C(O)CCC2(C)C1CCC1(C)C2CC=C2C3CC(C)(C)C(OC(=O)C(C)=CC)C(O)C3(COC(=O)C(C)=CC)C(O)CC21C (centres unmarked) [Compound A4] | moderate | – | – |
| CC(=O)OCC1(C)C(O)CCC2(C)C1CCC1(C)C2CC=C2C3CC(C)(C)C(OC(C)=O)C(O)C3(COC(C)=O)C(O)CC21C (centres unmarked) [Compound H4] | – | – | Cytotoxicity activity [5]: moderate |
| C=CCCC(=O)OCC12C(O)CC3(C)C(=CCC4C5(C)CCC(O)C(C)(COC(=O)C(C)=CC)C5CCC43C)C1CC(C)(C)C(O)C2OC(=O)CCC=C (centres unmarked) [Tig—Pen—3] | – | moderate | – |
| CC(=O)OCC1(C)C(O)CCC2(C)C1CCC1(C)C2CC=C2C3CC(C)(C)C(OC(C)=O)C(O)C3(CO)C(O)CC21C (centres unmarked) [Compound H29] | – | – | Cytotoxicity activity [5]: moderate |
| CC=C(C)C(=O)OCC1(C)C(OC(=O)C(C)=CC)CCC2(C)C1CCC1(C)C2CC=C2C3CC(C)(C)C(O)C(O)C3(COC(=O)C(C)=CC)C(O)CC21C (centres unmarked) [Compound A6] | moderate | – | – |
| CC=CC(=O)OCC1(C)C(O)CCC2(C)C1CCC1(C)C2CC=C2C3CC(C)(C)C(O)C(OC(=O)C=CC)C3(COC(=O)C=CC)C(O)CC21C (centres unmarked) [Compound I5] | – | – | Cytotoxicity activity [3]: moderate |
| CC=C(C)C(=O)OCC1(C)C(O)CCC2(C)C1CCC1(C)C2CC=C2C3CC(C)(C)C(OC(=O)C=C(C)C)C(OC(=O)C=C(C)C)C3(COC(=O)C(C)=CC)C(O)CC21C (centres unmarked) [Tig—R—Sen—1] | – | weak | – |
| C=CCCC(=O)OCC1(C)C(OC(=O)CCC=C)CCC2(C)C1CCC1(C)C2CC=C2C3CC(C)(C)C(O)C(OC(=O)CCC=C)C3(COC(=O)CCC=C)C(OC(=O)CCC=C)CC21C (centres unmarked) [Compound C18] | weak | – | – |

| Compound | Cytotoxicity activity [1] | Cytotoxicity activity [2] | further results |
| --- | --- | --- | --- |
| CC=C(C)C(=O)OCC1(C)C(OC(=O)C(C)=CC)CCC2(C)C1CCC1(C)C2CC=C2C3CC(C)(C)C(OC(=O)C(C)=CC)C(O)C3(COC(=O)C(C)=CC)C(O)CC21C (centres unmarked) [Compound A11] | weak | – | – |
| CC=CC(=O)OC1C(O)C2(CO)C(O)CC3(C)C(=CCC4C5(C)CCC(O)C(C)(COC(=O)C(C)=CC)C5CCC43C)C2CC1(C)C (centres unmarked) [Tig—Cro—5] | – | moderate | – |
| CC=C(C)C(=O)OCC1(C)C(OC(=O)C=C(C)C)CCC2(C)C1CCC1(C)C2CC=C2C3CC(C)(C)C(O)C(OC(=O)C=C(C)C)C3(COC(=O)C(C)=CC)C(O)CC21C (centres unmarked) [Tig—R—Sen—6] | – | weak | – |
| CC=C(C)C(=O)OCC1(C)C(O)CCC2(C)C1CCC1(C)C2CC=C2C3CC(C)(C)C(O)C(OC(=O)C(C)=CC)C3(COC(=O)C(C)=CC)C(O)CC21C (centres unmarked) [Tig—Ang—3] | – | moderate | – |
| CCCCCC(=O)OC1C(OC(=O)CCCCC)C2(CO)C(OC(=O)CCCCC)CC3(C)C(=CCC4C5(C)CCC(O)C(C)(CO)C5CCC43C)C2CC1(C)C (centres unmarked) [Compound D22] | moderate | – | – |
| CC=CC(=O)OCC12C(O)CC3(C)C(=CCC4C5(C)CCC(O)C(C)(COC(=O)C(C)=CC)C5CCC43C)C1CC(C)(C)C(O)C2O (centres unmarked) [Tig—Cro—1] | – | strong | – |
| CC=C(C)C(=O)OC1C(OC(=O)C(C)=CC)C2(CO)C(OC(=O)C(C)=CC)CC3(C)C(=CCC4C5(C)CCC(O)C(C)(CO)C5CCC43C)C2CC1(C)C (centres unmarked) [Compound A22] | moderate | – | – |
| CC1(C)CC2C3=CCC4C5(C)CCC(O)C(C)(COC(=O)C=Cc6ccccc6)C5CCC4(C)C3(C)CC(O)C2(COC(=O)C=Cc2ccccc2)C(OC(=O)C=Cc2ccccc2)C1OC(=O)C=Cc1ccccc1 (centres unmarked) [Compound J8] | – | – | Cytotoxicity activity [4]: weak |
| CC=CC(=O)OC1C(OC(=O)C=CC)C2(CO)C(O)CC3(C)C(=CCC4C5(C)CCC(O)C(C)(CO)C5CCC43C)C2CC1(C)C (centres unmarked) [Compound I24] | – | – | Cytotoxicity activity [3]: moderate |
| CC=C(C)C(=O)OCC12C(OC(=O)C(C)=CC)CC3(C)C(=CCC4C5(C)CCC(O)C(C)(CO)C5CCC43C)C1CC(C)(C)C(O)C2O (centres unmarked) [Compound A28] | moderate | – | – |
| CC=CC(=O)OCC1(C)C(O)CCC2(C)C1CCC1(C)C2CC=C2C3CC(C)(C)C(OC(=O)C=CC)C(OC(=O)C=CC)C3(CO)C(O)CC21C (centres unmarked) [Compound I21] | – | – | Cytotoxicity activity [3]: moderate |
| CC=CC(=O)OC1C(O)C2(COC(=O)C(C)=CC)C(O)CC3(C)C(=CCC4C5(C)CCC(O)C(C)(COC(=O)C(C)=CC)C5CCC43C)C2CC1(C)C (centres unmarked) [Tig—R—Cro—2] | – | moderate | – |
| CC(C)=CC(=O)OCC1(C)C(OC(=O)C=C(C)C)CCC2(C)C1CCC1(C)C2CC=C2C3CC(C)(C)C(OC(=O)C=C(C)C)C(OC(=O)C=C(C)C)C3(COC(=O)C=C(C)C)C(OC(=O)C=C(C)C)CC21C (centres unmarked) [Compound B19] | none | – | – |
| CC=C(C)C(=O)OCC1(C)C(O)CCC2(C)C1CCC1(C)C2CC=C2C3CC(C)(C)C(O)C(OC(=O)C=Cc4ccccc4)C3(COC(=O)C=Cc3ccccc3)C(O)CC21C (centres unmarked) [Tig—Cin—3] | – | moderate | – |
| C=CCCC(=O)OCC1(C)C(O)CCC2(C)C1CCC1(C)C2CC=C2C3CC(C)(C)C(OC(=O)CCC=C)C(OC(=O)CCC=C)C3(COC(=O)CCC=C)C(OC(=O)CCC=C)CC21C (centres unmarked) [Compound C16] | weak | – | – |
| CC=CC(=O)OCC1(C)C(O)CCC2(C)C1CCC1(C)C2CC=C2C3CC(C)(C)C(O)C(O)C3(COC(=O)C=CC)C(OC(=O)C=CC)CC21C (centres unmarked) [Compound I7] | – | – | Cytotoxicity activity [3]: moderate |
| C=CCCC(=O)OCC1(C)C(O)CCC2(C)C1CCC1(C)C2CC=C2C3CC(C)(C)C(OC(=O)CCC=C)C(OC(=O)CCC=C)C3(CO)C(O)CC21C (centres unmarked) [Compound C21] | moderate | – | – |
| CC(=O)OCC12C(O)CC3(C)C(=CCC4C5(C)CCC(O)C(C)(CO)C5CCC43C)C1CC(C)(C)C(OC(C)=O)C2OC(C)=O (centres unmarked) [Compound H20] | – | – | Cytotoxicity activity [5]: moderate |
| CC=C(C)C(=O)OCC1(C)C(O)CCC2(C)C1CCC1(C)C2CC=C2C3CC(C)(C)C(OC(=O)C=Cc4ccccc4)C(OC(=O)C=Cc4ccccc4)C3(COC(=O)C(C)=CC)C(O)CC21C (centres unmarked) [Tig—R—Cin—1] | – | weak | – |
| CC=C(C)C(=O)OCC1(C)C(O)CCC2(C)C1CCC1(C)C2CC=C2C3CC(C)(C)C(O)C(O)C3(COC(C)=O)C(O)CC21C (centres unmarked) [Tig—Acy—1] | – | strong | – |
| CC=C(C)C(=O)OCC1(C)C(OC(=O)CCCCC)CCC2(C)C1CCC1(C)C2CC=C2C3CC(C)(C)C(O)C(OC(=O)CCCCC)C3(COC(=O)C(C)=CC)C(O)CC21C (centres unmarked) [Tig—R—Hex—6] | – | weak | – |
| CC(C)=CC(=O)OCC1(C)C(OC(=O)C=C(C)C)CCC2(C)C1CCC1(C)C2CC=C2C3CC(C)(C)C(OC(=O)C=C(C)C)C(OC(=O)C=C(C)C)C3(COC(=O)C=C(C)C)C(O)CC21C (centres unmarked) [Compound B15] | weak | – | – |
| CC=C(C)C(=O)OCC1(C)C(O)CCC2(C)C1CCC1(C)C2CC=C2C3CC(C)(C)C(O)C(O)C3(COC(=O)C(C)=CC)C(OC(=O)C(C)=CC)CC21C (centres unmarked) [Compound A7] | moderate | – | – |
